Source: paper PMC10945555, “Improving Activity of New Arylurea Agents against Multidrug-Resistant and Biofilm-Producing Staphylococcus epidermidis” (ACS Medicinal Chemistry Letters, 2024)
Converted amounts (≈) assume the structure as drawn.

Tests used:
[1] = system: BJ cells; experiment: Cytotoxicity, MTT assay, skin fibroblasts; format: cell-based, human; settings: Homo sapiens, MTT, 24 h, n = 3
[2] = system: biofilm-producing Staphylococcus epidermidis strains; experiment: Biofilm eradication (MBEC Assay Kit); format: cell-based
[3] = system: H9c2 cells; experiment: Cytotoxicity, MTT assay, cardiomyocytes; format: cell-based; settings: Rattus norvegicus, 24 h, n = 3
Procedure, shortened: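 Rat H9c2 cardiomyocytes (DMEM) and human BJ fibroblasts (EMEM), both with 10% serum, were exposed to compound for 24 h at 37°C. MTT (5 mg/mL) was then added for 3 h and DMSO-dissolved formazan read at 570 nm as percent of untreated control. IC50 came from non-linear regression over three experiments.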

[4] = system: biofilm-producing Staphylococcus epidermidis strains; experiment: Inhibition of biofilm formation (MBIC, resazurin); format: cell-based
Procedure, shortened: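 Biofilm viability in S. epidermidis strains read by resazurin reduction to resorufin after 24 h incubation, compared with sterile-medium and bacteria-only controls.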

[5] = S. epidermidis ATCC 35984 (Table S4)

In the case of O=S(=O)(NC1CCN(CCC(Oc2ccc(C(F)(F)F)cc2)c2ccccc2)CC1)c1cccc(Cl)c1 (centres unmarked) [Compound 12], the IC50 [1] is reported as 7.4 µg/mL (≈ 13.4 µM), the MBEC [2, 5] is reported as 31.25 µg/mL and the MBEC50 ([2]; Table S4 strains) is reported as 125 µg/mL. It also gave an MBEC ([2]; clinical strain 1 (Table S4)) of 125 µg/mL, an MBEC ([2]; clinical strain 2 (Table S4)) of 125 µg/mL and an MBEC ([2]; clinical strain 3 (Table S4)) of 250 µg/mL. It also gave an MBEC ([2]; clinical strain 4 (Table S4)) of 125 µg/mL, an MBEC ([2]; clinical strain 5 (Table S4)) of 125 µg/mL and an MBEC ([2]; clinical strain 6 (Table S4)) of 125 µg/mL. It also gave an MBEC ([2]; clinical strain 7 (Table S4)) of 125 µg/mL, an MBEC ([2]; clinical strain 8 (Table S4)) of 62.5 µg/mL and an MBEC ([2]; clinical strain 9 (Table S4)) of 250 µg/mL. The MBEC ([2]; clinical strain 11 (Table S4)) was 125 µg/mL, the MBEC ([2]; clinical strain 12 (Table S4)) was 125 µg/mL and the MBEC ([2]; clinical strain 13 (Table S4)) was 62.5 µg/mL. For the same compound, the MBEC ([2]; clinical strain 15 (Table S4)) was 125 µg/mL, the MBEC ([2]; clinical strain 16 (Table S4)) was 62.5 µg/mL and the MBEC ([2]; clinical strain 17 (Table S4)) was 62.5 µg/mL. The MBEC ([2]; clinical strain 19 (Table S4)) was 31.25 µg/mL, the MBEC ([2]; clinical strain 21 (Table S4)) was 125 µg/mL and the MBEC ([2]; clinical strain 22 (Table S4)) was 125 µg/mL. For the same compound, the MBEC ([2]; clinical strain 23 (Table S4)) was 31.25 µg/mL, the MBEC ([2]; clinical strain 25 (Table S4)) was 31.25 µg/mL and the MBEC ([2]; clinical strain 26 (Table S4)) was 250 µg/mL. For the same compound, the MBEC ([2]; clinical strain 27 (Table S4)) was 250 µg/mL, the MBEC ([2]; clinical strain 28 (Table S4)) was 125 µg/mL and the MBEC ([2]; clinical strain 29 (Table S4)) was 125 µg/mL. The MBEC ([2]; clinical strain 30 (Table S4)) was 125 µg/mL, the MBEC ([2]; clinical strain 33 (Table S4)) was 125 µg/mL and the MBEC ([2]; clinical strain 35 (Table S4)) was 125 µg/mL. The MBEC ([2]; clinical strain 36 (Table S4)) was 125 µg/mL, the MBEC ([2]; clinical strain 37 (Table S4)) was 125 µg/mL and the MBEC ([2]; clinical strain 39 (Table S4)) was 31.25 µg/mL. The MBEC ([2]; clinical strain 40 (Table S4)) was 125 µg/mL, the MBEC ([2]; clinical strain 41 (Table S4)) was 125 µg/mL and the MBEC ([2]; clinical strain 42 (Table S4)) was 125 µg/mL. It also gave an MBEC ([2]; clinical strain 43 (Table S4)) of 250 µg/mL, an MBEC ([2]; clinical strain 44 (Table S4)) of 31.25 µg/mL and an MBEC ([2]; clinical strain 45 (Table S4)) of 125 µg/mL. It also gave an MBEC ([2]; clinical strain 46 (Table S4)) of 125 µg/mL, an MBEC ([2]; clinical strain 47 (Table S4)) of 62.5 µg/mL and an MBEC ([2]; clinical strain 49 (Table S4)) of 31.25 µg/mL. The MBEC ([2]; clinical strain 51 (Table S4)) was 250 µg/mL, the MBEC ([2]; clinical strain 55 (Table S4)) was 125 µg/mL and the MBEC ([2]; clinical strain 58 (Table S4)) was 125 µg/mL. For the same compound, the MBEC ([2]; clinical strain 59 (Table S4)) was 125 µg/mL, the MBEC ([2]; clinical strain 65 (Table S4)) was 125 µg/mL and the MBEC ([2]; clinical strain 66 (Table S4)) was 125 µg/mL. For the same compound, the MBEC ([2]; clinical strain 67 (Table S4)) was 125 µg/mL, the MBEC ([2]; clinical strain 70 (Table S4)) was 250 µg/mL and the MBEC ([2]; clinical strain 73 (Table S4)) was 31.25 µg/mL. The MBEC ([2]; clinical strain 74 (Table S4)) was 125 µg/mL, the MBEC ([2]; clinical strain 75 (Table S4)) was 31.25 µg/mL and the MBEC ([2]; clinical strain 78 (Table S4)) was 31.25 µg/mL. It also gave an MBEC ([2]; clinical strain 79 (Table S4)) of 31.25 µg/mL, an IC50 [3] of 14.2 µg/mL (≈ 25.7 µM) and an MBIC [4, 5] of 31.25 µg/mL. For the same compound, the MBIC50 ([4]; Table S4 strains) was 125 µg/mL, the MBIC ([4]; clinical strain 1 (Table S4)) was 125 µg/mL and the MBIC ([4]; clinical strain 2 (Table S4)) was 125 µg/mL. The MBIC ([4]; clinical strain 3 (Table S4)) was 125 µg/mL, the MBIC ([4]; clinical strain 4 (Table S4)) was 125 µg/mL and the MBIC ([4]; clinical strain 5 (Table S4)) was 62.5 µg/mL. For the same compound, the MBIC ([4]; clinical strain 6 (Table S4)) was 125 µg/mL, the MBIC ([4]; clinical strain 7 (Table S4)) was 125 µg/mL and the MBIC ([4]; clinical strain 8 (Table S4)) was 15.6 µg/mL. It also gave an MBIC ([4]; clinical strain 9 (Table S4)) of 125 µg/mL, an MBIC ([4]; clinical strain 11 (Table S4)) of 125 µg/mL and an MBIC ([4]; clinical strain 12 (Table S4)) of 125 µg/mL. It also gave an MBIC ([4]; clinical strain 13 (Table S4)) of 62.5 µg/mL, an MBIC ([4]; clinical strain 15 (Table S4)) of 125 µg/mL and an MBIC ([4]; clinical strain 16 (Table S4)) of 62.5 µg/mL. It also gave an MBIC ([4]; clinical strain 17 (Table S4)) of 62.5 µg/mL, an MBIC ([4]; clinical strain 19 (Table S4)) of 31.25 µg/mL and an MBIC ([4]; clinical strain 21 (Table S4)) of 125 µg/mL. For the same compound, the MBIC ([4]; clinical strain 22 (Table S4)) was 125 µg/mL, the MBIC ([4]; clinical strain 23 (Table S4)) was 31.25 µg/mL and the MBIC ([4]; clinical strain 25 (Table S4, Figure 2)) was 31.25 µg/mL. For the same compound, the MBIC ([4]; clinical strain 26 (Table S4)) was 125 µg/mL, the MBIC ([4]; clinical strain 27 (Table S4)) was 250 µg/mL and the MBIC ([4]; clinical strain 28 (Table S4)) was 62.5 µg/mL. For the same compound, the MBIC ([4]; clinical strain 29 (Table S4)) was 62.5 µg/mL, the MBIC ([4]; clinical strain 30 (Table S4)) was 62.5 µg/mL and the MBIC ([4]; clinical strain 33 (Table S4)) was 125 µg/mL. It also gave an MBIC ([4]; clinical strain 35 (Table S4)) of 125 µg/mL, an MBIC ([4]; clinical strain 36 (Table S4)) of 62.5 µg/mL and an MBIC ([4]; clinical strain 37 (Table S4)) of 125 µg/mL. It also gave an MBIC ([4]; clinical strain 39 (Table S4)) of 31.25 µg/mL, an MBIC ([4]; clinical strain 40 (Table S4)) of 125 µg/mL and an MBIC ([4]; clinical strain 41 (Table S4)) of 125 µg/mL. The MBIC ([4]; clinical strain 42 (Table S4)) was 125 µg/mL, the MBIC ([4]; clinical strain 43 (Table S4)) was 250 µg/mL and the MBIC ([4]; clinical strain 44 (Table S4)) was 31.25 µg/mL. The MBIC ([4]; clinical strain 45 (Table S4)) was 125 µg/mL, the MBIC ([4]; clinical strain 46 (Table S4)) was 125 µg/mL and the MBIC ([4]; clinical strain 47 (Table S4)) was 62.5 µg/mL. For the same compound, the MBIC ([4]; clinical strain 49 (Table S4)) was 31.25 µg/mL, the MBIC ([4]; clinical strain 51 (Table S4)) was 125 µg/mL and the MBIC ([4]; clinical strain 55 (Table S4)) was 125 µg/mL. The MBIC ([4]; clinical strain 58 (Table S4)) was 125 µg/mL, the MBIC ([4]; clinical strain 59 (Table S4)) was 125 µg/mL and the MBIC ([4]; clinical strain 65 (Table S4)) was 125 µg/mL. It also gave an MBIC ([4]; clinical strain 66 (Table S4)) of 125 µg/mL, an MBIC ([4]; clinical strain 67 (Table S4)) of 125 µg/mL and an MBIC ([4]; clinical strain 70 (Table S4)) of 125 µg/mL. It also gave an MBIC ([4]; clinical strain 73 (Table S4)) of 31.25 µg/mL, an MBIC ([4]; clinical strain 74 (Table S4)) of 125 µg/mL and an MBIC ([4]; clinical strain 75 (Table S4)) of 31.25 µg/mL. It also gave an MBIC ([4]; clinical strain 78 (Table S4)) of 31.25 µg/mL and an MBIC ([4]; clinical strain 79 (Table S4)) of 31.25 µg/mL.
